Reference: ChEMBL document CHEMBL1201862, “PubChem BioAssay data set” (2004)
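These data come from cells grown in 96-well plates and exposed to compound for 48 hours at five concentrations. Here, GI50 denotes the concentration required for 50% inhibition of growth.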 The source made the active and inactive calls. Cut-off read from the data, not from the text of the source: active = GI50 up to about 1.1 µM and inactive = higher.

How the values were obtained:
Experiment in all cases: DTP human tumour cell line panel, 48 h
HCT-15 = tested on: HCT-15
LOX IMVI = tested on: LOX IMVI
SF-268 = tested on: SF-268
M19-MEL = tested on: M19-MEL
KM12 = tested on: KM12
UACC-62 = tested on: UACC-62
RXF 393 = tested on: RXF 393
SK-MEL-2 = tested on: SK-MEL-2
SNB-19 = tested on: SNB-19
SK-MEL-5 = tested on: SK-MEL-5
EKVX = tested on: EKVX
OVCAR-8 = tested on: OVCAR-8
OVCAR-4 = tested on: OVCAR-4
OVCAR-3 = tested on: OVCAR-3
Malme-3M = tested on: Malme-3M
MCF7 = tested on: MCF7
DU-145 = tested on: DU-145
MDA-N = tested on: MDA-N
MDA-MB-435 = tested on: MDA-MB-435
PC-3 = tested on: PC-3

Row | SMILES | GI50 (HCT-15) | GI50 (LOX IMVI) | GI50 (SF-268) | GI50 (M19-MEL) | GI50 (KM12) | GI50 (UACC-62) | GI50 (RXF 393) | GI50 (SK-MEL-2) | GI50 (SNB-19) | GI50 (SK-MEL-5) | GI50 (EKVX) | GI50 (OVCAR-8) | GI50 (OVCAR-4) | GI50 (OVCAR-3) | GI50 (Malme-3M) | GI50 (MCF7) | GI50 (DU-145) | GI50 (MDA-N) | GI50 (MDA-MB-435) | GI50 (PC-3)
1 | CN(C)NC(=O)NC12CC3CC(CC(C3)C1)C2 | > 100 µM | > 100 µM (inactive) | > 100 µM (inactive) | > 100 µM (inactive) | > 100 µM (inactive) | > 100 µM (inactive) | > 10 µM (inactive) | > 100 µM (inactive) | > 100 µM (inactive) | > 100 µM (inactive) | > 100 µM (inactive) | > 100 µM (inactive) | > 100 µM (inactive) |  |  |  |  |  |  | 
2 | Cc1ccc(-n2c3nc(=O)n(C)c(=O)c-3nc3ccccc32)c(C)c1 | 9.62 µM | 12.6 µM (inactive) | 15.4 µM (inactive) | 1.63 µM (inactive) | 8.18 µM (inactive) | 2.33 µM (inactive) | 14.6 µM (inactive) | 12.9 µM (inactive) | 5.28 µM (inactive) | 4.73 µM (inactive) | 8.67 µM (inactive) | 8.18 µM (inactive) | 12 µM (inactive) | 2.5 µM (inactive) | 3.92 µM (inactive) |  |  |  |  | 
3 | CC1(C2CCC3(C)OC3C2)CO1 (centres undefined) |  | > 100 µM (inactive) | > 100 µM (inactive) | > 100 µM (inactive) | > 100 µM (inactive) | > 100 µM (inactive) | > 100 µM (inactive) | > 100 µM (inactive) | > 100 µM (inactive) | > 100 µM (inactive) | > 100 µM (inactive) | > 100 µM (inactive) | > 100 µM (inactive) | > 100 µM (inactive) | > 100 µM (inactive) |  |  |  |  | 
4 | O=C(/C=C/c1ccc([N+](=O)[O-])cc1)c1ccc(NCc2nc3ccccc3[nH]2)cc1 | 2.93 µM | 2.43 µM (inactive) | 5.71 µM (inactive) | 3.94 µM (inactive) | 1.78 µM (inactive) | 9.84 µM (inactive) |  | 14.9 µM (inactive) | 3.56 µM (inactive) | 5.18 µM (inactive) | 7.69 µM (inactive) | 2.68 µM (inactive) | 13.3 µM (inactive) | 3.09 µM (inactive) | 14.2 µM (inactive) |  |  |  |  | 
5 | COc1ccc2c(c1)[n+]([O-])c(/C(C)=N/NC(=O)CC#N)c[n+]2[O-] | > 100 µM | > 100 µM (inactive) | > 100 µM (inactive) | > 100 µM (inactive) | > 100 µM (inactive) | > 100 µM (inactive) | > 100 µM (inactive) | > 100 µM (inactive) | > 100 µM (inactive) | > 100 µM (inactive) | > 100 µM (inactive) | > 100 µM (inactive) | > 100 µM (inactive) | > 100 µM (inactive) | > 100 µM (inactive) |  |  |  |  | 
6 | CCOP(=S)(OCC)Oc1ccc2c(c1)OC(=O)C1(Cl)C2(C)C2(Cl)C(=O)Oc3cc(OP(=S)(OCC)OCC)ccc3C12C (centres undefined) | 20.4 µM | 19 µM (inactive) | 6.08 µM (inactive) | 18 µM (inactive) | 15.5 µM (inactive) | 12.6 µM (inactive) | 11.8 µM (inactive) | 20.4 µM (inactive) | 4.8 µM (inactive) | 17 µM (inactive) | 24.3 µM (inactive) | 16.3 µM (inactive) | 10.7 µM (inactive) | 14.6 µM (inactive) | 22.6 µM (inactive) |  |  |  |  | 
7 | COc1cccc2c1C(=O)c1c(O)c3c(c(O)c1C2=O)CC(O)(C(O)CO)CC3OC1CC(N2CCOCC2)C(O)C(C)O1 (centres undefined) | 0.00353 µM |  | 0.00231 µM (active) | 0.0146 µM (active) | 0.00551 µM (active) | < 0.001 µM (active) | 0.0155 µM (active) | 0.00422 µM (active) | 0.00404 µM (active) | 0.00223 µM (active) | 0.00386 µM (active) | 0.00182 µM (active) | 0.00337 µM (active) | 0.0023 µM (active) | 0.00251 µM (active) | 0.0223 µM (active) | 0.00703 µM (active) | 0.0143 µM (active) | 0.00883 µM (active) | 0.0123 µM (active)
8 | COC(=O)c1nn(C(=N)c2ccc(Cl)cc2)c2c1CCCCC2 | > 100 µM | > 100 µM (inactive) | > 100 µM (inactive) | > 100 µM (inactive) | > 100 µM (inactive) | > 100 µM (inactive) | > 100 µM (inactive) | > 100 µM (inactive) | > 100 µM (inactive) | > 100 µM (inactive) |  |  | > 100 µM (inactive) |  | > 100 µM (inactive) |  |  |  |  | 
9 | O=C(n1c2ccccc2c2nnc(S)nc21)C(F)(F)F | > 100 µM | > 100 µM (inactive) | > 100 µM (inactive) | > 100 µM (inactive) | > 100 µM (inactive) | > 100 µM (inactive) | 33.4 µM (inactive) | > 10 µM (inactive) | > 100 µM (inactive) | > 100 µM (inactive) | > 100 µM (inactive) | > 100 µM (inactive) | > 100 µM (inactive) | > 100 µM (inactive) | > 100 µM (inactive) |  |  |  |  | 
10 | Cc1cc2c(cn1)C(=O)OCC2 |  | > 100 µM (inactive) | > 100 µM (inactive) | > 100 µM (inactive) | > 100 µM (inactive) | > 100 µM (inactive) | > 100 µM (inactive) |  | > 100 µM (inactive) |  | > 100 µM (inactive) | > 100 µM (inactive) | > 100 µM (inactive) | > 100 µM (inactive) | > 100 µM (inactive) |  |  |  |  | 
11 | COc1cccc(/C=N/[N-]C(=S)Nc2ccccc2)c1[O-].O.[Zn+2] | 31.6 µM | 53.7 µM (inactive) | 47 µM (inactive) | 60 µM (inactive) | 40.6 µM (inactive) | 19.7 µM (inactive) | 35.9 µM (inactive) | 63.7 µM (inactive) | 66.1 µM (inactive) | 61.1 µM (inactive) | 49.1 µM (inactive) | 35.5 µM (inactive) | 23.5 µM (inactive) | 40.5 µM (inactive) | 86.5 µM (inactive) |  |  |  |  | 
12 | C=CCn1c(=O)n(CC=C)c(=O)n(CC=C)c1=O | > 100 µM | > 100 µM (inactive) | > 100 µM (inactive) | > 100 µM (inactive) | > 100 µM (inactive) | > 100 µM (inactive) | > 100 µM (inactive) | > 100 µM (inactive) | > 100 µM (inactive) | > 100 µM (inactive) | > 100 µM (inactive) | > 100 µM (inactive) |  | > 100 µM (inactive) | > 100 µM (inactive) |  |  |  |  | 
13 | O=C1/C(=C/c2ccccc2)CN(C(=O)CCN2CCCC2)C/C1=C\c1ccccc1 | 1.73 µM | 0.687 µM (active) | 1.72 µM (inactive) | 1.84 µM (inactive) | 0.607 µM (active) | 1.61 µM (inactive) | 2.33 µM (inactive) | 2.77 µM (inactive) | 2.51 µM (inactive) | 1.83 µM (inactive) | 2.49 µM (inactive) | 1.53 µM (inactive) | 1.57 µM (inactive) | 2.08 µM (inactive) | 3.03 µM (inactive) | 0.64 µM (active) | 4.48 µM (inactive) | 0.426 µM (active) | 1.28 µM (inactive) | 0.724 µM (active)
14 | CN(C)C(=S)/N=c1\ss/c(=N\S(=O)(=O)c2ccccc2)n1N(C)C | > 100 µM |  | 69.8 µM (inactive) | 55.5 µM (inactive) | > 100 µM (inactive) | > 100 µM (inactive) | 9.91 µM (inactive) | > 100 µM (inactive) | > 100 µM (inactive) | > 100 µM (inactive) | > 100 µM (inactive) | > 100 µM (inactive) | > 100 µM (inactive) | > 100 µM (inactive) | > 100 µM (inactive) |  |  |  |  | 
15 | COC(=O)[C@H]1C=C[C@@H](C)n2c(=O)c3cc4ccccc4cc3c(=O)n21 | > 100 µM | > 100 µM (inactive) | > 100 µM (inactive) | > 100 µM (inactive) | > 100 µM (inactive) |  | > 100 µM (inactive) | > 100 µM (inactive) | > 100 µM (inactive) | > 100 µM (inactive) | > 100 µM (inactive) | > 100 µM (inactive) |  | > 100 µM (inactive) | > 100 µM (inactive) |  |  |  |  | 
16 | CCC(=S)N(C)O | 17 µM | 10.6 µM (inactive) | 47.4 µM (inactive) | 9.77 µM (inactive) | 25 µM (inactive) | 20 µM (inactive) | 25.9 µM (inactive) | 29.4 µM (inactive) | 63.5 µM (inactive) | 8.55 µM (inactive) | 16.5 µM (inactive) | 40.3 µM (inactive) | 9.53 µM (inactive) | 3.08 µM (inactive) | 53.5 µM (inactive) | 3.71 µM (inactive) | 27.6 µM (inactive) | 35.9 µM (inactive) | 15.6 µM (inactive) | 8.69 µM (inactive)
17 | COC(=O)C1=C(c2cc(OC)c(OC)c(OC)c2)OC(c2ccc(OC)c(OC)c2)C1 (centres undefined) | 43.5 µM | 29.3 µM (inactive) | 55.8 µM (inactive) | 43.3 µM (inactive) | 29.2 µM (inactive) | 71.4 µM (inactive) | 35.9 µM (inactive) | 61.2 µM (inactive) |  | 29.7 µM (inactive) | > 100 µM (inactive) | 47.9 µM (inactive) | 47.2 µM (inactive) | 38.6 µM (inactive) | > 100 µM (inactive) |  |  |  |  | 
